# Measured values taken from patent publication US20230295200A1 (REGENTS OF THE UNIVERSITY OF MICHIGAN, priority 2022, published 2023).
# Target: T1, STAT6 protein (Homo sapiens, UniProt P42226)
# T1 sequence (P42226 1-847): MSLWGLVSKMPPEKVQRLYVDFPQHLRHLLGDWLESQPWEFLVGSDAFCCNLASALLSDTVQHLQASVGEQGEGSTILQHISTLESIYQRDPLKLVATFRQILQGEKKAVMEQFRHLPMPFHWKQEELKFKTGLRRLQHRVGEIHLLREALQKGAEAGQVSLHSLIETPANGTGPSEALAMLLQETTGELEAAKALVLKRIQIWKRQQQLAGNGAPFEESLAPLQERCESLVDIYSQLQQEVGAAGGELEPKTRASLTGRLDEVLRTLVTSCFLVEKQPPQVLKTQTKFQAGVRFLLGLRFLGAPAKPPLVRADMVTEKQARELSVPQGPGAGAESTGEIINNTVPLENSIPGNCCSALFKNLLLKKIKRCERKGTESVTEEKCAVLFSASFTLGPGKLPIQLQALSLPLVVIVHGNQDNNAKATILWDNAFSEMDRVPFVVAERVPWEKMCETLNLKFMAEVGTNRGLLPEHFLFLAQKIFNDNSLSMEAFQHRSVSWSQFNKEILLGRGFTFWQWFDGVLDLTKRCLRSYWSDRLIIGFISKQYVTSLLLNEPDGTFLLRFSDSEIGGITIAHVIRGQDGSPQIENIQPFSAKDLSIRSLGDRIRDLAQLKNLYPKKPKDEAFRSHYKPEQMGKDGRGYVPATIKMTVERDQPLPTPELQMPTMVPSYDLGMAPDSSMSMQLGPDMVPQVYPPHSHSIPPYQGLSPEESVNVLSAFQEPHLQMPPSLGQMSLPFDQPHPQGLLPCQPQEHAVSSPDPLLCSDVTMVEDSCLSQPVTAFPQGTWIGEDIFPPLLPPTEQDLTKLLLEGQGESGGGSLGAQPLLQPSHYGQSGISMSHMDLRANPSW
# Experiment: Fluorescence polarization (FP) binding assay, STAT6
# Conditions: FP competition, 5 nM fluorescein-labeled tracer, 200 nM protein, PBS pH7.4; read-out: Binding STAT6
# In short: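 Each well holds 200 nM STAT5 and/or STAT6 with 5 nM fluorescent tracer in PBS pH 7.4 (0.01% BGG, 0.01% Tween-20, 2 mM DTT). Binding reaches equilibrium over 1 h at room temperature after brief shaking, and polarization data are fitted nonlinearly.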
row,Ki,SMILES
1,100 to 1000 nM,"CCCC[C@H](NC(=O)c1cc2cc(C(F)(F)P(=O)(O)O)ccc2s1)C(=O)N1CCC[C@H]1C(=O)N1CCO[C@H](c2ccccc2)C1 [Compound 272, (difluoro(2-(((S)-1-oxo-1-((S)-2-((R)-2-phenylmorpholine-4-carbonyl)pyrrolidin-1-yl)hexan-2-yl)carbamoyl)benzo[b]thiophen-5-yl)methyl)phosphonic acid]"
2,100 to 1000 nM,"O=C(N[C@@H](Cc1ccc(Br)cc1)C(=O)N1CCC[C@H]1C(=O)N1CCO[C@H](c2ccccc2)C1)c1cc2cc(C(F)(F)P(=O)(O)O)ccc2s1 [Compound 273, ((2-(((S)-3-(4-bromophenyl)-1-oxo-1-((S)-2-((R)-2-phenylmorpholine-4-carbonyl)pyrrolidin-1-yl)propan-2-yl)carbamoyl)benzo[b]thiophen-5-yl)difluoromethyl)phosphonic acid]"
3,100 to 1000 nM,"CN(C)CCC[C@H](NC(=O)c1cc2cc(C(F)(F)P(=O)(O)O)ccc2s1)C(=O)N1CCC[C@H]1C(=O)N1CCO[C@H](c2ccccc2)C1 [Compound 274, ((2-(((S)-5-(dimethylamino)-1-oxo-1-((S)-2-((R)-2-phenylmorpholine-4-carbonyl)pyrrolidin-1-yl)pentan-2-yl)carbamoyl)benzo[b]thiophen-5-yl)difluoromethyl)phosphonic acid]"
4,100 to 1000 nM,"CN(C)CC[C@H](NC(=O)c1cc2cc(C(F)(F)P(=O)(O)O)ccc2s1)C(=O)N1CCC[C@H]1C(=O)N1CCO[C@H](c2ccccc2)C1 [Compound 275, ((2-(((S)-4-(dimethylamino)-1-oxo-1-((S)-2-((R)-2-phenylmorpholine-4-carbonyl)pyrrolidin-1-yl)butan-2-yl)carbamoyl)benzo[b]thiophen-5-yl)difluoromethyl)phosphonic acid]"
5,100 to 1000 nM,"NC(=O)CC[C@H](NC(=O)c1cc2cc(C(F)(F)P(=O)(O)O)ccc2s1)C(=O)N1CCC[C@H]1C(=O)N1CCO[C@H](c2ccccc2)C1 [Compound 276, ((2-(((S)-5-amino-1,5-dioxo-1-((S)-2-((R)-2-phenylmorpholine-4-carbonyl)pyrrolidin-1-yl)pentan-2-yl)carbamoyl)benzo[b]thiophen-5-yl)difluoromethyl)phosphonic acid]"
6,< 100 nM,"CC(C)(C)c1ccc(C[C@H](NC(=O)c2cc3cc(C(F)(F)P(=O)(O)O)ccc3s2)C(=O)N2CCC[C@H]2C(=O)N2CCO[C@H](c3ccccc3)C2)cc1 [Compound 277, ((2-(((S)-3-(4-(tert-butyl)phenyl)-1-oxo-1-((S)-2-((R)-2-phenylmorpholine-4-carbonyl)pyrrolidin-1-yl)propan-2-yl)carbamoyl)benzo[b]thiophen-5-yl)difluoromethyl)phosphonic acid]"
7,100 to 1000 nM,"O=C(N[C@@H](Cc1ccc(F)c(F)c1)C(=O)N1CCC[C@H]1C(=O)N1CCO[C@H](c2ccccc2)C1)c1cc2cc(C(F)(F)P(=O)(O)O)ccc2s1 [Compound 278, ((2-(((S)-3-(3,4-difluorophenyl)-1-oxo-1-((S)-2-((R)-2-phenylmorpholine-4-carbonyl)pyrrolidin-1-yl)propan-2-yl)carbamoyl)benzo[b]thiophen-5-yl)difluoromethyl)phosphonic acid]"
8,100 to 1000 nM,"O=C(N[C@H](C(=O)N1CCC[C@H]1C(=O)N1CCO[C@H](c2ccccc2)C1)C1CCCCC1)c1cc2cc(C(F)(F)P(=O)(O)O)ccc2s1 [Compound 279, ((2-(((S)-1-cyclohexyl-2-oxo-2-((S)-2-((R)-2-phenylmorpholine-4-carbonyl)pyrrolidin-1-yl)ethyl)carbamoyl)benzo[b]thiophen-5-yl)difluoromethyl)phosphonic acid]"
9,< 100 nM,"NCCC[C@H](NC(=O)c1cc2cc(C(F)(F)P(=O)(O)O)ccc2s1)C(=O)N1CCC[C@H]1C(=O)N1CCO[C@H](c2ccccc2)C1 [Compound 280, ((2-(((S)-5-amino-1-oxo-1-((S)-2-((R)-2-phenylmorpholine-4-carbonyl)pyrrolidin-1-yl)pentan-2-yl)carbamoyl)benzo[b]thiophen-5-yl)difluoromethyl)phosphonic acid]"
10,< 100 nM,"N#Cc1cccc(C[C@H](NC(=O)c2cc3cc(C(F)(F)P(=O)(O)O)ccc3s2)C(=O)N2CCC[C@H]2C(=O)N2CCO[C@H](c3ccccc3)C2)c1 [Compound 281, ((2-(((S)-3-(3-cyanophenyl)-1-oxo-1-((S)-2-((R)-2-phenylmorpholine-4-carbonyl)pyrrolidin-1-yl)propan-2-yl)carbamoyl)benzo[b]thiophen-5-yl)difluoromethyl)phosphonic acid]"
11,< 100 nM,"O=C(N[C@@H](Cc1cccc([N+](=O)[O-])c1)C(=O)N1CCC[C@H]1C(=O)N1CCO[C@H](c2ccccc2)C1)c1cc2cc(C(F)(F)P(=O)(O)O)ccc2s1 [Compound 282, (difluoro(2-(((S)-3-(3-nitrophenyl)-1-oxo-1-((S)-2-((R)-2-phenylmorpholine-4-carbonyl)pyrrolidin-1-yl)propan-2-yl)carbamoyl)benzo[b]thiophen-5-yl)methyl)phosphonic acid]"
12,100 to 1000 nM,"Cc1cccc(C[C@H](NC(=O)c2cc3cc(C(F)(F)P(=O)(O)O)ccc3s2)C(=O)N2CCC[C@H]2C(=O)N2CCO[C@H](c3ccccc3)C2)c1 [Compound 283, (difluoro(2-(((S)-1-oxo-1-((S)-2-((R)-2-phenylmorpholine-4-carbonyl)pyrrolidin-1-yl)-3-(m-tolyl)propan-2-yl)carbamoyl)benzo[b]thiophen-5-yl)methyl)phosphonic acid]"
13,100 to 1000 nM,"COc1ccc(C[C@H](NC(=O)c2cc3cc(C(F)(F)P(=O)(O)O)ccc3s2)C(=O)N2CCC[C@H]2C(=O)N2CCO[C@H](c3ccccc3)C2)cc1 [Compound 284, (difluoro(2-(((S)-3-(4-methoxyphenyl)-1-oxo-1-((S)-2-((R)-2-phenylmorpholine-4-carbonyl)pyrrolidin-1-yl)propan-2-yl)carbamoyl)benzo[b]thiophen-5-yl)methyl)phosphonic acid]"
14,100 to 1000 nM,"O=C(N[C@@H](Cc1ccc2ccccc2c1)C(=O)N1CCC[C@H]1C(=O)N1CCO[C@H](c2ccccc2)C1)c1cc2cc(C(F)(F)P(=O)(O)O)ccc2s1 [Compound 285, (difluoro(2-(((S)-3-(naphthalen-2-yl)-1-oxo-1-((S)-2-((R)-2-phenylmorpholine-4-carbonyl)pyrrolidin-1-yl)propan-2-yl)carbamoyl)benzo[b]thiophen-5-yl)methyl)phosphonic acid]"
15,100 to 1000 nM,"O=C(N[C@@H](Cc1nc2ccccc2s1)C(=O)N1CCC[C@H]1C(=O)N1CCO[C@H](c2ccccc2)C1)c1cc2cc(C(F)(F)P(=O)(O)O)ccc2s1 [Compound 286, ((2-(((S)-3-(benzo[d]thiazol-2-yl)-1-oxo-1-((S)-2-((R)-2-phenylmorpholine-4-carbonyl)pyrrolidin-1-yl)propan-2-yl)carbamoyl)benzo[b]thiophen-5-yl)difluoromethyl)phosphonic acid]"
16,100 to 1000 nM,"O=C(N[C@@H](Cc1cccs1)C(=O)N1CCC[C@H]1C(=O)N1CCO[C@H](c2ccccc2)C1)c1cc2cc(C(F)(F)P(=O)(O)O)ccc2s1 [Compound 287, (difluoro(2-(((S)-1-oxo-1-((S)-2-((R)-2-phenylmorpholine-4-carbonyl)pyrrolidin-1-yl)-3-(thiophen-2-yl)propan-2-yl)carbamoyl)benzo[b]thiophen-5-yl)methyl)phosphonic acid]"
17,100 to 1000 nM,"O=C(N[C@@H](CCc1ccccc1)C(=O)N1CCC[C@H]1C(=O)N1CCO[C@H](c2ccccc2)C1)c1cc2cc(C(F)(F)P(=O)(O)O)ccc2s1 [Compound 288, (difluoro(2-(((S)-1-oxo-4-phenyl-1-((S)-2-((R)-2-phenylmorpholine-4-carbonyl)pyrrolidin-1-yl)butan-2-yl)carbamoyl)benzo[b]thiophen-5-yl)methyl)phosphonic acid]"
18,< 100 nM,"O=C(N[C@@H](CCCc1ccccc1)C(=O)N1CCC[C@H]1C(=O)N1CCO[C@H](c2ccccc2)C1)c1cc2cc(C(F)(F)P(=O)(O)O)ccc2s1 [Compound 289, (difluoro(2-(((S)-1-oxo-5-phenyl-1-((S)-2-((R)-2-phenylmorpholine-4-carbonyl)pyrrolidin-1-yl)pentan-2-yl)carbamoyl)benzo[b]thiophen-5-yl)methyl)phosphonic acid]"
19,100 to 1000 nM,"O=C(N[C@@H](CC1CCNCC1)C(=O)N1CCC[C@H]1C(=O)N1CCO[C@H](c2ccccc2)C1)c1cc2cc(C(F)(F)P(=O)(O)O)ccc2s1 [Compound 290, (difluoro(2-(((S)-1-oxo-1-((S)-2-((R)-2-phenylmorpholine-4-carbonyl)pyrrolidin-1-yl)-3-(piperidin-4-yl)propan-2-yl)carbamoyl)benzo[b]thiophen-5-yl)methyl)phosphonic acid]"
